Data on 23 compounds can be found in the supplement of paper PMC9763283.

Each structure is given as a SMILES string.

Test in all cases: area under growth-rate inhibition curve (AUC GRI) (dimensionless (GR-based AUC)); higher = less growth inhibition
Holding throughout (settings): exposure time: 72 h; concentrations: 0.1, 1, 10 uM

One experiment deals with BT474-P. The gist of the method: (§1)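 The area under the growth-rate inhibition curve was measured in six breast cancer cell line models, covering triple-negative lines and HER2+ lines, both parental and resistant to a two-drug combination. Cells were exposed to compound at 0.1, 1 or 10 µM for 72 h, fixed in 4% paraformaldehyde, and nuclei were stained with Hoechst 33342 or DAPI for imaging and counting. Day 0 plates, untreated Day 3 plates and DMSO controls served to correct growth across 2 biological replicates.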

The test system of a further experiment is SKBR3-P. The gist of the method: as §1
Another experiment deals with MDA-MB-468. The gist of the method: as §1
The next experiment relates to BT474-LTR. The gist of the method: as §1
The test system of the next experiment is SKBR3-LTR. The gist of the method: as §1
The test system of the next experiment is MDA-MB-231. The gist of the method:
as §1

On to `CC(C)N(CCC(c1ccccc1)c1cc(CO)ccc1O)C(C)C` (stereo not drawn), for which the “area under growth-rate inhibition curve” value was 1.04 in the experiment with BT474-P; 0.957 in the experiment on SKBR3-P; 1.04 in the experiment with MDA-MB-468; 1.06 in the experiment on BT474-LTR; 1.03 in the experiment with SKBR3-LTR; 1.03 with MDA-MB-231.

For `CN1CCN(c2nc3ccccc3nc2Cl)CC1`, the “area under growth-rate inhibition curve” value in the experiment with BT474-P was 0.997; with SKBR3-P, 0.987; in the experiment with MDA-MB-468, 0.986; with BT474-LTR, 1.01; in the experiment with SKBR3-LTR, 1.01; in the experiment on MDA-MB-231 it was 0.97.

On to `O=C(NCc1ccncc1)C12CC3CC(C1)CC(c1ccc(Cl)cc1)(C3)C2`, for which the “area under growth-rate inhibition curve” value in the experiment on BT474-P was 0.985; with SKBR3-P, 1.02; with MDA-MB-468, 1.01; in the experiment on BT474-LTR, 1.08; with SKBR3-LTR it was 1.04; with MDA-MB-231, 1.04.

Turning to `O=C(NCC1CCOCC1)c1cnc(Nc2ccc(Cl)cc2Cl)nc1C(F)(F)F`, the “area under growth-rate inhibition curve” value was 0.983 with BT474-P; 1.02 in the experiment on SKBR3-P; 1.01 with MDA-MB-468; 1.04 with BT474-LTR; 1.05 in the experiment with SKBR3-LTR; 1 with MDA-MB-231.

For the compound `OC[C@H]1O[C@@H](c2ccc(Cl)c(Cc3ccc(O[C@H]4CCOC4)cc3)c2)[C@H](O)[C@@H](O)[C@@H]1O`, the “area under growth-rate inhibition curve” value turned out to be 1.03 in the experiment on BT474-P; 1.03 in the experiment with SKBR3-P; 1.05 in the experiment on MDA-MB-468; 1.07 in the experiment with BT474-LTR; 1.09 with SKBR3-LTR; 1.03 in the experiment on MDA-MB-231.

For `O=C1CCCC2C3CCCN4CCCC(CN12)C34` (single isomer, unassigned; (+)) [(+)-Matrine], the “area under growth-rate inhibition curve” value amounted to 1.06 in the experiment on BT474-P; 1.02 in the experiment with SKBR3-P; 1.01 with MDA-MB-468; 1.08 in the experiment on BT474-LTR; 1.09 in the experiment with SKBR3-LTR; 1.03 in the experiment with MDA-MB-231.

Consider `CCC(=C(c1ccc(O)cc1)c1ccc(OCCN(C)C)cc1)c1ccccc1` [4-hydroxytamoxifen], for which the “area under growth-rate inhibition curve” value came out at 0.865 with BT474-P; 0.979 in the experiment on SKBR3-P; 0.896 with MDA-MB-468; 0.936 in the experiment on BT474-LTR; 0.934 in the experiment with SKBR3-LTR; 0.935 in the experiment on MDA-MB-231.

For the compound `Nc1ncnc2c1c(I)cn2[C@@H]1O[C@H](CO)[C@H](O)C1O` (stereo partly drawn) [5-Iodotubercidin], the “area under growth-rate inhibition curve” value in the experiment with BT474-P came out at 0.676; with SKBR3-P, 0.632; with MDA-MB-468, 0.73; in the experiment with BT474-LTR, 0.673; with SKBR3-LTR it was 0.627; with MDA-MB-231, 0.705.

Take `CCN(CC)CCCCN1c2ccccc2Oc2ccc(Cl)cc21.Cl` [10-DEBC hydrochlorid]: the “area under growth-rate inhibition curve” value in the experiment with BT474-P was 1.04; in the experiment on SKBR3-P, 1.04; in the experiment with MDA-MB-468, 1.06; in the experiment on BT474-LTR, 0.995; in the experiment with SKBR3-LTR, 1.05; in the experiment on MDA-MB-231 it was 1.04.

With `CC(=O)[C@@]1(O)CC[C@H]2[C@@H]3CCC4=CC(=O)CC[C@]4(C)[C@H]3CC[C@@]21C` [17-Hydroxyprogesterone], the “area under growth-rate inhibition curve” value came out at 1.02 in the experiment on BT474-P; 1 in the experiment with SKBR3-P; 1 in the experiment with MDA-MB-468; 1.07 with BT474-LTR; 1.03 in the experiment with SKBR3-LTR; 1.02 with MDA-MB-231.

For the compound `C[C@@]12N[C@@H](Cc3ccccc31)c1ccccc12.O=C(O)/C=C/C(=O)O` [(-)-MK 801 Maleate], the “area under growth-rate inhibition curve” value in the experiment on BT474-P is 1.03; in the experiment with SKBR3-P, 1.03; in the experiment on MDA-MB-468 it was 1.04; in the experiment on BT474-LTR, 1.08; with SKBR3-LTR it was 1.06; in the experiment on MDA-MB-231, 1.03.

For `CN1CCc2cccc3c2[C@H]1Cc1ccc(O)c(O)c1-3.[Cl-].[H+]` [(R)-(-)-Apomorphine hydrochloride], the “area under growth-rate inhibition curve” value in the experiment with BT474-P came to 0.933; in the experiment on SKBR3-P it was 0.965; in the experiment with MDA-MB-468, 0.977; with BT474-LTR, 0.963; in the experiment on SKBR3-LTR, 1.04; in the experiment with MDA-MB-231 it was 1.03.

Consider `CCN(CC)C(=O)c1ccc(C2=CC3(CCNCC3)Oc3cccc(O)c32)cc1.Cl` [ADL5859 HCl], for which the “area under growth-rate inhibition curve” value in the experiment on BT474-P is 1.05; with SKBR3-P it was 1.03; with MDA-MB-468, 1.04; with BT474-LTR, 1.07; with SKBR3-LTR, 1.1; with MDA-MB-231 it was 1.03.

Consider `CN1CCCCC1Cn1cc(C(=O)c2cc([N+](=O)[O-])ccc2I)c2ccccc21` (stereo not drawn) [AM1241], for which the “area under growth-rate inhibition curve” value in the experiment on BT474-P is 0.977; with SKBR3-P it was 0.998; in the experiment on MDA-MB-468, 0.972; in the experiment on BT474-LTR, 1; with SKBR3-LTR it was 1.02; in the experiment on MDA-MB-231, 0.987.

As to `CC(=O)NCCCS(=O)(=O)[O-].CC(=O)NCCCS(=O)(=O)[O-].[Ca+2]` [Acamprosate calcium], the “area under growth-rate inhibition curve” value in the experiment with BT474-P is 1.01; in the experiment with SKBR3-P, 1.01; in the experiment on MDA-MB-468, 1; with BT474-LTR, 1.01; in the experiment on SKBR3-LTR, 1.03; in the experiment with MDA-MB-231, 0.995.

For the compound `CCCC(=O)Nc1ccc(OCC(O)CNC(C)C)c(C(C)=O)c1.[Cl-].[H+]` (stereo not drawn) [Acebutolol HCl], the “area under growth-rate inhibition curve” value in the experiment with BT474-P stood at 1.05; in the experiment with SKBR3-P, 1.04; in the experiment with MDA-MB-468, 1.03; with BT474-LTR, 1.11; with SKBR3-LTR, 1.07; in the experiment on MDA-MB-231 it was 1.03.

On to `CC(=O)OCC[N+](C)(C)C.[Cl-]` [Acetylcholine Chloride], for which the “area under growth-rate inhibition curve” value with BT474-P turned out to be 1.03; in the experiment with SKBR3-P it was 1.02; in the experiment with MDA-MB-468, 1.04; with BT474-LTR, 1.09; in the experiment with SKBR3-LTR, 1.05; with MDA-MB-231 it was 1.04.

Regarding `O=C(OC1C[N+]2(CCCOc3ccccc3)CCC1CC2)C(O)(c1cccs1)c1cccs1.[Br-]` (stereo not drawn) [Aclidinium Bromide], the “area under growth-rate inhibition curve” value is 1.01 with BT474-P; 0.988 in the experiment with SKBR3-P; 1.03 with MDA-MB-468; 0.997 with BT474-LTR; 1.02 with SKBR3-LTR; 1.03 in the experiment on MDA-MB-231.

With `CNCC(=O)c1ccc(O)c(O)c1.Cl` [Adrenalone HCl], the “area under growth-rate inhibition curve” value in the experiment on BT474-P is 1.04; with SKBR3-P it was 1.03; in the experiment on MDA-MB-468, 1.02; in the experiment on BT474-LTR, 1.1; in the experiment with SKBR3-LTR, 1.07; in the experiment with MDA-MB-231 it was 0.964.

Regarding `CN1CCC(=C2c3ccccc3CCn3c(C=O)cnc32)CC1` [Alcaftadine], the “area under growth-rate inhibition curve” value with BT474-P came out at 1; with SKBR3-P, 1.02; with MDA-MB-468, 1.03; with BT474-LTR, 1.04; in the experiment with SKBR3-LTR, 1.06; with MDA-MB-231, 1.04.

On to `O=c1ncnc2[nH][nH]cc1-2` [Allopurinol], for which the “area under growth-rate inhibition curve” value in the experiment with BT474-P worked out at 1.06; with SKBR3-P, 1.03; in the experiment with MDA-MB-468 it was 1.06; in the experiment on BT474-LTR, 1.1; with SKBR3-LTR, 1.07; in the experiment with MDA-MB-231, 1.03.

`CNC(=O)[C@@H](c1ccccc1)N1CCc2cc(OC)c(OC)cc2[C@@H]1CCc1ccc(C(F)(F)F)cc1.Cl` [Almorexant HCl]: the “area under growth-rate inhibition curve” value in the experiment on BT474-P was found to be 0.976; in the experiment with SKBR3-P, 0.977; in the experiment on MDA-MB-468, 1; with BT474-LTR, 1.07; in the experiment on SKBR3-LTR, 0.988; in the experiment on MDA-MB-231, 1.01.

For `CN(C)CCc1c[nH]c2ccc(CS(=O)(=O)N3CCCC3)cc12.O=C(O)CC(O)C(=O)O` [Almotriptan Malate], the “area under growth-rate inhibition curve” value turned out to be 1.02 with BT474-P; 1.02 in the experiment on SKBR3-P; 1.04 in the experiment with MDA-MB-468; 1.09 in the experiment with BT474-LTR; 1.06 in the experiment with SKBR3-LTR; 1.02 with MDA-MB-231.
